Assay results reported in US20030040531A1, “Remedies for reperfusion injury containing integrin alphanubeta 3 antagonist” (priority 2000, published 2003).

How the values were obtained:
[1] = system: rat acute myocardial ischemia-reperfusion model; experiment: rat acute myocardial ischemia-reperfusion model; assay type: in vivo; details: for myocardial infarct size (proportion of the infarct area in the left ventricle): average value±SE; for influence on the blood pressure and the heart rate: doses at which the infarct inhibition action could be obtained
Method: Male Wistar rats (330 to 420 g) were subjected to controlled respiration using an artificial respirator under pentobarbital anesthesia (60 mg/kg, i.p.), and the blood pressure and the heart rate were measured through a blood pressure amplifier and a heart rate unit. Further, for the ischemia of the myocardium, an increase in voltage of R-wave in the II leading in an electrocardiogram was confirmed with a monitor through a bioelectricity amplifier. The rats underwent thoracotomy, and the coronary artery, together with the myocardium, was then occluded using a suture with a needle. Ischemia for 3 min and reperfusion for 5 min were followed by ischemia for 45 min and reperfusion for 45 min. Medicaments tested and concentrations thereof were 3 mg/kg+3 mg/kg/hr (bolus +infusion) (L; low dose group) and 6 mg/kg+3 mg/kg/hr (bolus +infusion) (H; high dose group) for the compound represented by formula (V); 3 mg/kg+3 mg/kg/hr (bolus +infusion) for the compound represented by formula (VI); 3 mg/kg+3 mg/kg/hr (bolus +infusion) (L; low dose group) and 6 mg/kg+3 mg/kg/hr (bolus +infusion) (H; high dose group) for the compound represented by formula (IV); 5 mg/kg+5 mg/kg/hr(bolus +infusion)(L; low dose group) and 10 mg/kg+10 mg/kg/hr (bolus +infusion) (H; high dose group) for the compound represented by formula (VII); and 1 mg/kg+1 mg/kg/hr (bolus+infusion) (L; low dose group) and 6 mg/kg+6 mg/kg/hr (bolus+infusion) (H; high dose group) for the compound represented by formula (VIII). For a control group (group C), a 10% (v/v) dimethyl sulfoxide/5% glucose solution was administered, and each medicament was dissolved in the same solvent. The dose volume was 3 ml/kg+3 ml/kg/h (bolus+infusion). The medicament was continuously administered through an infusion pump for the period starting with one min before the ischemia and ending with the completion of the experiment. After reperfusion for 45 min, the rats were slaughtered by excessive administration of pentobarbital, and the heart was removed. After perfusion with a Ringer solution, perfusion staining was carried out with 1.5% triphenyltetrazolium chloride, and the proportion of the infarct area in the left ventricle was quantitatively determined. For animals used in the experiment, each group consisted of 5 rats.

[2] = system: human vascular smooth muscle cells; experiment: adhesion of human vascular smooth muscle cells to immobilized human vitronectin; assay type: cell-based; details: read-out: concentration (IC50) necessary for inhibition of adhesion to vitronectin
Method: (§1) The adhesion of vascular smooth muscle cells to immobilized human vitronectin was measured in accordance with the method of Liaw et al. (L. Liaw et al., Circ. Res., 74, 214 (1994)). A Dulbecco's phosphate buffer (Dulbecco's PBS(−)) solution of human serum-derived vitronectin adjusted to a concentration of 4 μg/ml was first added to wells (50 μl/well) of a microplate (Maxisorp), and a reaction for immobilization was allowed to proceed at 4° C. overnight. After washing twice with 150 μl of Dulbecco's PBS (−), Dulbecco's PBS (−) containing 10 mg/ml of bovine serum albumin was added, followed by blocking at 37° C. for one hr. The microplate was then washed twice with 150 μl of Dulbecco's PBS (−) to prepare an assay plate.
Separately, human vascular smooth muscle cells cultivated at 37° C. under 5% carbon dioxide in a medium for vascular smooth muscle cells were separated using a Dulbecco's PBS (−) containing trypsin-EDTA, were washed with Dulbecco's PBS (−), and were then suspended in a Dulbecco's modified Eagle's basal medium to a concentration of 2×10^5/ml.
(§2) Next, 50 μl of a Dulbecco's modified Eagle's basal medium containing 20 mg/ml of bovine serum albumin with a medicament added thereto was added to the wells of the human vitronectin-coated assay microplate, followed by pre-cultivation under 5% carbon dioxide at 37° C. for 10 min. Thereafter, 50 μl of the Dulbecco's modified Eagle's basal medium with human vascular smooth muscle cells suspended therein was added thereto, and the plate was thoroughly stirred. A reaction was allowed to proceed under 5% carbon dioxide at 37° C. for 90 min. The reaction solution containing non-adherent cells was then removed, followed by washing three times with Dulbecco's PBS (−). For the adhered cells, 100 μl of Dulbecco's PBS (−) containing 4% paraformaldehyde was added, and immobilization was allowed to proceed at room temperature for 10 min. Next, 100 μl of a Dulbecco's PBS (−) containing 0.5% Toluidine Blue and 4% paraformaldehyde was added, and staining was allowed to proceed at room temperature for 5 min, followed by thorough washing with distilled water. The inside of the wells was then air-dried, and 1% aqueous sodium dodecylsulfate solution was then added to perform cytolysis. The absorbance of the microplate thus obtained was measured at 595 nm. […] The inhibition was calculated by the following equation. IC50 was determined from a primary regression line of the logarithm of each concentration of the test compound and the logarithm of (100−inhibition)/inhibition. [formula]

platelet aggregation [3] = experiment: inhibition of platelet aggregation, human; assay type: cell-based; details: read-out: concentration (IC50) necessary for inhibition of platelet aggregation
integrin αvβ3 = integrin αvβ3 (Homo sapiens, UniProt P05106+P06756); experiment: integrin αvβ3 binding assay (Pharmacological Example 1 in WO 99/38849)
Text: Whether or not a compound has integrin αvβ3 antagonistic activity may be determined by assaying the antagonistic action by integrin αvβ3 binding assay as described, for example, in Pharmacological Test Example 1 in WO 99/38849.

platelet aggregation [4] = experiment: inhibition of platelet aggregation, rat; assay type: cell-based; details: read-out: concentration (IC50) necessary for inhibition of platelet aggregation
[5] = system: rat vascular smooth muscle cells; experiment: adhesion of rat vascular smooth muscle cells to rat vitronectin; assay type: cell-based; details: read-out: concentration (IC50) necessary for inhibition of adhesion to vitronectin
Method: as §1, §2
(§3) Rat vascular smooth muscle cells were cultivated in a medium composed of a mixture of equal amounts of 15% fetal calf serum-containing 199 medium and RPMI 1640 medium. Separately, hamster and dog vascular smooth muscle cells were cultivated in a 10% fetal calf serum-containing Dulbecco's modified Eagle's basal medium. These cultivated cells were then suspended in a Dulbecco's modified Eagle's basal medium to concentrations of 3×10^5 cells/ml (rat), 3×10^5 cells/ml (hamster), and 4×10^5 cells /ml (dog), respectively. Rat vitronectin was used in the adhesion system of rats and hamsters, while bovine vitronectin was used in the adhesion system of dogs.

[6] = system: dog vascular smooth muscle cells; experiment: adhesion of dog vascular smooth muscle cells to bovine vitronectin; assay type: cell-based; details: Canis lupus familiaris, read-out: concentration (IC50) necessary for inhibition of adhesion to vitronectin
Method: as §1, §2, §3

platelet aggregation [7] = experiment: inhibition of platelet aggregation, dog; assay type: cell-based; details: Canis lupus familiaris, read-out: concentration (IC50) necessary for inhibition of platelet aggregation
[8] = 3 mg/kg+3 mg/kg/hr (bolus+infusion)
[9] = 3 mg/kg+3 mg/kg/hr (bolus+infusion), n=5

integrin αvβ3, sequence (P06756 31-1048): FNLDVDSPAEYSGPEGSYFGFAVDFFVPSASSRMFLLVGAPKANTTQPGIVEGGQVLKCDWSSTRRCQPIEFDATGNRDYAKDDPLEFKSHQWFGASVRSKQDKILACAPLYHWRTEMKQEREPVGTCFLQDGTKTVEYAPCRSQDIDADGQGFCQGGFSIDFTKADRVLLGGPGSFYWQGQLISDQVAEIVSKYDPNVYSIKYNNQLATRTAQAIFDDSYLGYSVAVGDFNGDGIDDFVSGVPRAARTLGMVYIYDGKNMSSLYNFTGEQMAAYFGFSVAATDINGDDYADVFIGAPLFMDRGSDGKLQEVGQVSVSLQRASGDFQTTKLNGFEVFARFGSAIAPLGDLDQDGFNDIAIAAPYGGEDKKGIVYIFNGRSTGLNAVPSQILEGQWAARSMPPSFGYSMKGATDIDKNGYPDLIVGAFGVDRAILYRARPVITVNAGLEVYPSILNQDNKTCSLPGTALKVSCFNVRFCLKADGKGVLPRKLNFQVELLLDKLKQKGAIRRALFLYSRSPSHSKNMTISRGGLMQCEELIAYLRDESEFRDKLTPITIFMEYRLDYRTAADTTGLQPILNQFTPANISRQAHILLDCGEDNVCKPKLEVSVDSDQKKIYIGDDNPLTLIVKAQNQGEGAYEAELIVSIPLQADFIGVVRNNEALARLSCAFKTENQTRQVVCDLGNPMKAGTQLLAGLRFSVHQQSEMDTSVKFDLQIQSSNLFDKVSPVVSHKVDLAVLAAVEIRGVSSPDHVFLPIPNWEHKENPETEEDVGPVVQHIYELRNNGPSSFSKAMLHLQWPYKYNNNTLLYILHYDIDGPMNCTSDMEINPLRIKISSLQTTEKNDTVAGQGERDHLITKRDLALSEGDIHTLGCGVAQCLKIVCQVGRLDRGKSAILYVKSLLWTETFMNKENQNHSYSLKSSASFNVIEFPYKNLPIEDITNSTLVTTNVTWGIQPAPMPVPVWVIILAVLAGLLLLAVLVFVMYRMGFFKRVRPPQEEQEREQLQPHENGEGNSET
integrin αvβ3, sequence (P05106 27-788): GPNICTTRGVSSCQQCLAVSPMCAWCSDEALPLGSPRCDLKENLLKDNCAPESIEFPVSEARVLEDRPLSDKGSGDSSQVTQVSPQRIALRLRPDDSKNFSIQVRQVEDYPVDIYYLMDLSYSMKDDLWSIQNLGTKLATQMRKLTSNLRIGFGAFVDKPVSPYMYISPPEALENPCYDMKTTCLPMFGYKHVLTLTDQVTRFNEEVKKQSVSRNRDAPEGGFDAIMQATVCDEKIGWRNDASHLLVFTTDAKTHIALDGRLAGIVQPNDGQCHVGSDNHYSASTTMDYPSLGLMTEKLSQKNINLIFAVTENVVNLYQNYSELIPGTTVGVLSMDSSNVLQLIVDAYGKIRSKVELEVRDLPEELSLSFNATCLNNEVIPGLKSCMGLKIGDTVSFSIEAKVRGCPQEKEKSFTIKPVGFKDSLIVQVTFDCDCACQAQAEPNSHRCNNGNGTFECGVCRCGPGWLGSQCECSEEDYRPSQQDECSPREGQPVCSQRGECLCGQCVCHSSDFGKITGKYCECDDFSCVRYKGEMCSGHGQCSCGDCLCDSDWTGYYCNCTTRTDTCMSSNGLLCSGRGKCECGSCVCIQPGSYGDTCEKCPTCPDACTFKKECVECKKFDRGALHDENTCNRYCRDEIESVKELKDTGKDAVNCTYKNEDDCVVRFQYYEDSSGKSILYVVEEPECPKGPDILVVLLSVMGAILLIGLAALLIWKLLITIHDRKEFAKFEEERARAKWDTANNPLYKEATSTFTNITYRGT

SMILES	reduction of myocardial infarct size as compared with group C [1, 8] [%]	myocardial infarct size (proportion of the infarct area in the left ventricle) [1, 9] [%]	reduction of myocardial infarct size as compared with group C ([1]; 6 mg/kg+3 mg/kg/hr (bolus+infusion), group H) [%]	myocardial infarct size (proportion of the infarct area in the left ventricle) ([1]; 6 mg/kg+3 mg/kg/hr (bolus+infusion), group H, n=5) [%]	influence on the blood pressure and the heart rate [1]	IC50 [2] [nM]	IC50 (platelet aggregation [3]) [nM]	IC50 (integrin αvβ3) [nM]	IC50 (platelet aggregation [4]) [nM]	IC50 [5] [nM]	reduction of myocardial infarct size as compared with group C ([1]; 1 mg/kg+1 mg/kg/hr (bolus+infusion), group L) [%]	myocardial infarct size (proportion of the infarct area in the left ventricle) ([1]; 1 mg/kg+1 mg/kg/hr (bolus+infusion), group L, n=5, group C 36.0±1.9%) [%]	reduction of myocardial infarct size as compared with group C ([1]; 6 mg/kg+6 mg/kg/hr (bolus+infusion), group H) [%]	myocardial infarct size (proportion of the infarct area in the left ventricle) ([1]; 6 mg/kg+6 mg/kg/hr (bolus+infusion), group H, n=5, group C 36.0±1.9%) [%]	IC50 [6] [nM]	IC50 (platelet aggregation [7]) [nM]	reduction of myocardial infarct size as compared with group C ([1]; 5 mg/kg+5 mg/kg/hr (bolus+infusion), group L) [%]	myocardial infarct size (proportion of the infarct area in the left ventricle) ([1]; 5 mg/kg+5 mg/kg/hr (bolus+infusion), group L, n=5, group C 38.8±[…]) [%]	reduction of myocardial infarct size as compared with group C ([1]; 10 mg/kg+10 mg/kg/hr (bolus+infusion), group H) [%]	myocardial infarct size (proportion of the infarct area in the left ventricle) ([1]; 10 mg/kg+10 mg/kg/hr (bolus+infusion), group H, n=5, group C 38.8±[…]) [%]
O=C(NCC(NS(=O)(=O)c1ccccc1)C(=O)O)c1ccc(N2CCC(NC3=NCCCN3)CC2)cc1 (stereo in doubt) [formula (V), (2S)-Benzenesulfonylamino-3-[4-{4-(1,4,5,6-tetrahydropyrimidin-2-ylamino)piperidin-1-yl}-benzoylamino]propionic Acid]	16.1	39.0±1.7	35.5	30.0±1.6	no influence	190	63	1.2	13000	800										
O=C(NCC(NS(=O)(=O)c1ccccc1)C(=O)O)c1ccc(OCCNC2=NCCCN2)cc1 (stereo in doubt) [formula (VI), 4-[2-(3,4,5,6-Tetrahydropyrimidin-2-ylamino)ethyloxy]benzoyl-2(S)-phenylsulfonylamino-β-alanine]	34.8	30.3±6.1			no influence	72	180	0.39	> 100000	450										
COc1cc(C(=O)NCC(NS(=O)(=O)c2ccccc2)C(=O)O)ccc1N1CCC(NC2=NCCCN2)CC1 (stereo in doubt) [formula (VIII), (2S)-Benzenesulfonylamino-3-[3-methoxy-4-{4-(1,4,5,6-tetrahydropyrimidin-2-ylamino)-piperidin-1-yl}benzoylamino]propionic Acid]					no influence	130	130	0.14		760	24.2	27.3±5.2	32.5	24.3±3.8	28	56				
O=C(NC[C@@H](NS(=O)(=O)c1ccccc1)C(=O)O)c1ccc(N2CCCC(NC3=NCCCN3)C2)cc1 (stereo partly drawn) [formula (IX), (2S)-Benzenesulfonylamino-3-[4-{(3S)-(1,4,5,6-tetrahydropyrimidin-2-ylamino)piperidin-1-yl}benzoylamino]propionic Acid]						28	56	0.53		96					11	59				
O=C(NC[C@H](NS(=O)(=O)c1ccc(O)cc1)C(=O)O)c1ccc(N2CCC(NC3=NCCCN3)CC2)c(F)c1 [formula (VII), 3-[3-Fluoro-4-{4-(1,4,5,6-tetrahydropyrimidin-2-ylamino)piperidin-1-yl}benzoylamino]-(2S)-{(4-hydroxybenzenesulfonyl)amino}propionic Acid]					no influence	69	230	0.066	> 100000	640					18	190	24.5	29.3±1.7	41.5	22.7±3.8
O=C(NC[C@@H](NS(=O)(=O)c1ccccc1)C(=O)O)c1ccc(N2CCCC(NC3=NCCCN3)C2)cc1F (stereo partly drawn) [formula (X), (2S)-Benzenesulfonylamino-3-[2-fluoro-4-{(3S)-(1,4,5,6-tetrahydropyrimidin-2-ylamino)-piperidin-1-yl}benzoylamino]propionic Acid]						13	410	0.16		96					9.7	110				
O=C(NC[C@@H](NS(=O)(=O)c1cccs1)C(=O)O)c1ccc(N2CCCC(NC3=NCCCN3)C2)cc1 (stereo partly drawn) [formula (XI), 3-[4-{(3S)-(1,4,5,6-Tetrahydropyrimidin-2-ylamino)piperidin-1-yl}benzoylamino]-(2S)-{(thiophene-2-sulfonyl)amino}propionic Acid]						24	95	0.14												
